Data: EP0489933A1, “BILE ALCOHOL AND DRUG CONTAINING THE SAME AS ACTIVE INGREDIENT” (TSUMURA CO., LTD., priority 1990, dated 1992)

Experiments:
[1] = test system: red blood cells; test: Inhibition of thermal hemolysis of red blood cells; format: cell-based, donryu rats; details: 53°C for 20 minutes; for inhibition at 10 µM / inhibition at 50 µM / inhibition at 100 µM / inhibition at 200 µM / inhibition at 500 µM: Rattus norvegicus, Erythrocyte, 20 min, read-out: Hemolysis Inhibition Ratio (%) against Control
Method: Blood was collected from donryu rats of 150 to 200 g in body weight and centrifuged at 1,500 rpm for 5 minutes to obtain red blood cells. The red blood cells thus collected were diluted with 0.15 M phosphate buffer (pH 7.4) to prepare a 5% red blood cell suspension. A 3.8 ml portion of the thus prepared suspension was mixed with 0.2 ml solution of each compound of the present invention which has been adjusted to each level of the concentrations as shown in the following table, and the resulting mixture was shaken thoroughly and incubated at 53°C for 20 minutes. Thereafter, the thus incubated mixture was cooled rapidly with tap water and centrifuged at 3,000 rpm for 15 minutes, and absorbance at 540 nm of the resulting supernatant fluid was measured using a spectrophotometer (Hitachi: Type 200-20). Inhibition rate (%) of red blood cell hemolysis at each concentration of the compound was calculated based on the absorbance, with the results shown in Table 8.

[2] = Blood plasma clotting time after oral administration; format: in vivo, male rats of Wistar line; details: 30 mg/kg, p.o.; blood collected 90 minutes after administration; calcium chloride, 37°C
Method: In this experiment, 9-week-old male rats of Wistar line (5 to 6 individuals per one group) were used after rearing them for 1 week with normal feed. After 24 hours of fasting, each test drug was administered orally and, 90 minutes thereafter, blood sample was collected from lower abdominal vena cava of each rat under anesthesia with Nembutal® (1 ml/kg, i.p.). Blood samples obtained in this way were checked for their blood clotting time and erythrocyte deformability.
Measuring procedures are as follows.
Blood clotting time ... Collected blood sample is centrifuged at 3,500 rpm for 10 minutes to obtain blood plasma. The blood plasma is pre-incubated for 1 minute in a water bath controlled at 37°C, mixed with calcium chloride and then shaken at 20 second intervals to measure a time required for its clotting.

[3] = test system: platelet rich plasma (PRP); test: Platelet aggregation in platelet rich plasma after oral administration; format: in vivo, male rat; details: 30 mg/kg, p.o., blood 90 minutes after administration
Method: Each drug to be tested was orally administered to each male rat which has been subjected to fasting treatment for 18 to 24 hours. After 90 minutes of the administration, median incision ventrotomy was carried out under ether anesthesia to collect 9 volumes of blood using a syringe filled with 1 volume of 3.8% sodium citrate solution (3.8% sodium citrate solution:blood = 1:9). After thorough mixing, the thus prepared mixture was centrifuged at 800 rpm for 10 minutes at room temperature to collect the resulting supernatant fluid as platelet rich plasma (PRP). The residual portion was centrifuged at 3,000 rpm for 15 minutes at room temperature to collect the resulting supernatant fluid as platelet poor plasma (PPP). The PRP was diluted with the PPP to adjust the number of platelets to 3×10⁵ ± 2×10⁴ cells/µl. A 450 µl portion of the thus diluted PRP was incubated at 37°C for 3 minutes and then mixed with 50 µl of 1×10⁻⁵ M of ADP or 1×10⁻⁵ g/ml of collagen. Thereafter, platelet aggregation test of the mixture was carried out using an aggregometer by measuring transmittance at 940 nm.

| Compound | Hemolysis Inhibition Ratio (%) against Control ([1]; 0.01 mM) | Hemolysis Inhibition Ratio (%) against Control ([1]; 0.05 mM) | Hemolysis Inhibition Ratio (%) against Control ([1]; 0.1 mM) | Hemolysis Inhibition Ratio (%) against Control ([1]; 0.2 mM) | Hemolysis Inhibition Ratio (%) against Control ([1]; 0.5 mM) | Plasma Clotting Time ± S.E. [2] | Platelet Aggregation Ratio ±S.E. ([3]; ADP (1×10⁻⁵ M)) | Platelet Aggregation Ratio ±S.E. ([3]; Collagen (1×10⁻⁵ g/ml)) | inhibition at 10 µM ([1]; 0.01 mM) | inhibition at 50 µM ([1]; 0.05 mM) | inhibition at 100 µM ([1]; 0.1 mM) | inhibition at 200 µM ([1]; 0.2 mM) | inhibition at 500 µM ([1]; 0.5 mM) |
| --- | --- | --- | --- | --- | --- | --- | --- | --- | --- | --- | --- | --- | --- |
| CC(CCC1OCC1CO)C1CCC2C3C(O)CC4CC(O)CCC4(C)C3CC(O)C12C [Example 3, (24R)-(25S)-(+)-24,26-epoxy-5β-cholestane-3α,7α,12α,27-tetrol] | 33% | 30% | 24% | 51% | 70% | 195 ± 1.9 s | 42.5 ± 3.81% | 42.5 ± 1.85% | – | – | – | – | – |
| C[C@H](CCCC(CO)CO)[C@H]1CC[C@H]2[C@@H]3[C@H](O)C[C@@H]4C[C@H](O)CC[C@]4(C)[C@H]3C[C@H](O)[C@]12C [Example 6, 3α,7α,12α,26,27-pentahydroxy-5β-cholestane] | – | – | – | – | – | – | 50.1 ± 2.33% | 42.3 ± 3.83% | 33% | 25% | 20% | 41% | 62% |
| C[C@H](CCCC(CO)CO)[C@H]1CC[C@H]2[C@@H]3[C@H](O)C[C@H]4C[C@H](O)CC[C@]4(C)[C@H]3C[C@H](O)[C@]12C [Example 7, 3α,7α,12α,26,27-pentahydroxy-5α-cholestane] | – | – | – | – | – | – | 44.3 ± 2.43% | 42.1 ± 3.15% | 32% | 21% | 31% | 61% | 70% |
| C[C@H](CC[C@H](O)C(CO)CO)[C@H]1CC[C@H]2[C@@H]3[C@H](O)C[C@@H]4C[C@H](O)CC[C@]4(C)[C@H]3C[C@H](O)[C@]12C [Example 8, (24S)-3α,7α,12α,24,26,27-hexahydroxy-5β-cholestane] | – | – | – | – | – | – | 41.8 ± 1.81% | 46.6 ± 3.81% | 27% | 20% | 37% | 50% | 60% |
| C[C@H](CC[C@H](O)[C@@H](C)CO)[C@H]1CC[C@H]2[C@@H]3[C@H](O)C[C@@H]4C[C@H](O)CC[C@]4(C)[C@H]3C[C@H](O)[C@]12C [Example 9, (24S)-(25S)-3α,7α,12α,24,26-pentahydroxy-5β-cholestane] | – | – | – | – | – | – | 41.1 ± 1.21% | 49.1 ± 1.11% | 28% | 23% | 38% | 51% | 65% |
| C[C@H](CC[C@H](O)[C@H](C)CO)[C@H]1CC[C@H]2[C@@H]3[C@H](O)C[C@@H]4C[C@H](O)CC[C@]4(C)[C@H]3C[C@H](O)[C@]12C [Example 10, (24S)-(25R) 3α,7α,12α,24,26-pentahydroxy-5β-cholestane] | – | – | – | – | – | – | 42.2 ± 2.33% | 48.3 ± 1.65% | 24% | 21% | 31% | 44% | 58% |
| C[C@H](CC[C@@H](O)[C@@H](C)CO)[C@H]1CC[C@H]2[C@@H]3[C@H](O)C[C@@H]4C[C@H](O)CC[C@]4(C)[C@H]3C[C@H](O)[C@]12C [Example 11, (24R)-(25S)-3α,7α,12α,24,26-pentahydroxy-5β-cholestane] | – | – | – | – | – | – | 43.3 ± 2.81% | 40.8 ± 1.90% | 20% | 18% | 30% | 43% | 51% |
| C[C@H](CO)[C@H](O)CC[C@@H](C)[C@H]1CC[C@H]2[C@@H]3[C@H](O)C[C@@H]4C[C@H](O)CC[C@]4(C)[C@H]3C[C@H](O)[C@]12C [Example 12, (24R)-(25R)-3α,7α,12α,24,26-pentahydroxy-5β-cholestane] | – | – | – | – | – | – | 46.5 ± 5.82% | 41.3 ± 3.81% | 24% | 20% | 33% | 48% | 55% |
| C[C@H](CC[C@@H](O)C(CO)CO)[C@H]1CC[C@H]2[C@@H]3[C@H](O)C[C@@H]4C[C@H](O)CC[C@]4(C)[C@H]3C[C@H](O)[C@]12C [Illustrative Example 1, (24R)-(+)-3α,7α,12α,24,26,27-hexahydroxy-5β-cholestane] | – | – | – | – | – | – | 50.3 ± 1.32% | 43.8 ± 3.99% | 23% | 20% | 42% | 53% | 80% |
| C[C@H](CCCC(C)(O)CO)[C@H]1CC[C@H]2[C@@H]3[C@H](O)C[C@@H]4C[C@H](O)CC[C@]4(C)[C@H]3C[C@H](O)[C@]12C (stereo partly drawn) [Illustrative Example 4, 5β-cholestane-3α,7α,12α,25,26-pentol] | – | – | – | – | – | – | 42.5 ± 1.65% | 48.7 ± 2.53% | 27% | 25% | 41% | 42% | 49% |
| CC(C)C(O)CC[C@@H](C)[C@H]1CC[C@H]2[C@@H]3[C@H](O)C[C@@H]4C[C@H](O)CC[C@]4(C)[C@H]3C[C@H](O)[C@]12C (stereo partly drawn) [Illustrative Example 5, 3α,7α,12α,24-tetrahydroxy-5β-cholestane] | – | – | – | – | – | – | 44.8 ± 3.62% | 49.9 ± 4.85% | 25% | 21% | 33% | 51% | 58% |
| C[C@H](CCCO)[C@H]1CC[C@H]2[C@@H]3[C@H](O)C[C@@H]4C[C@H](O)CC[C@]4(C)[C@H]3C[C@H](O)[C@]12C [Illustrative Example 6, 3α,7α,12α,24-tetrahydroxy-5β-cholan] | – | – | – | – | – | – | 43.5 ± 3.26% | 47.7 ± 2.58% | 24% | 22% | 38% | 51% | 59% |
